The conditions of series [1]: compared with S-baclofen; cited from earlier work.
Series [2] is described as follows: Excipient solubility in HPLC method diluent. It is filed as physicochemical. Conditions: approximately 1 to 2 mg/mL.
The conditions of series [3]: animal models; cited from earlier work.

As to `NC[C@H](CC(=O)O)c1ccc(Cl)cc1` (single isomer, unassigned) [R-baclofen], the “potency in reducing obsessive-compulsive and repetitive behavior and audiogenic seizures” value in series [1] is “more potent than S-baclofen”.

In the case of `OC[C@@H](O)[C@@H](O)[C@H](O)[C@H](O)CO` [Pearlitol 300DC, Mannitol], the “Completely Soluble in 85% 50 mM Potassium Phosphate, pH 3.0, 15% ACN” value (from here on “Completely Soluble … 15% ACN”) in series [2] was “Yes”.

As for `CCCCCCCCCCCCCCCCCCOC(=O)/C=C/C(=O)[O-].[Na+]` [Pruv, Sodium Stearyl Fumarate], the “Completely Soluble … 15% ACN” value in series [2] was “No”. As for `OC[C@H]1O[C@H](O[C@]2(CCl)O[C@H](CCl)[C@@H](O)[C@@H]2O)[C@H](O)[C@@H](O)[C@H]1Cl` [Sucralose], in series [2], the “Completely Soluble … 15% ACN” value is listed as “Yes”. In the case of `NCC(CC(=O)O)c1ccc(Cl)cc1` (racemic) [Baclofen, (±)-4-Amino-3-(4-chlorophenyl) butanoic acid], the “absorption following administration into the colon” value in series [3] was “poorly absorbed”.

The record behind these values is US20240408042A1, “ORALLY DISINTEGRATING BACLOFEN COMPOSITIONS AND METHODS OF MAKING SAME” (Clinical Research Associates LLC, priority 2023, published 2024).
